Values of other authors as cited in patent publication US20060110359A1, “Cellular delivery of natriuretic peptides” (priority 2002, published 2006).

Columns and labels:
[1] = system: brain edema; conditions: for effect on brain edema: experimental brain hemorrhage in rats
[2] = system: brain edema; conditions: into rat lateral ventricle or intravenously

| Compound | brain water and sodium ([1]; given after a 4-hour delay, 24 hours after hemorrhage, rats) | brain water and sodium accumulation [2] | effect on brain edema [1] |
| --- | --- | --- | --- |
| CC[C@H](C)[C@@H]1NC(=O)[C@H](CCCNC(=N)N)NC(=O)[C@H](CC(=O)O)NC(=O)[C@H](CCSC)NC(=O)[C@H](CCCNC(=N)N)NC(=O)CNC(=O)CNC(=O)[C@H](Cc2ccccc2)NC(=O)[C@@H](NC(=O)[C@H](CO)NC(=O)[C@H](CO)NC(=O)[C@H](CCCNC(=N)N)NC(=O)[C@H](CCCNC(=N)N)NC(=O)[C@H](CC(C)C)NC(=O)[C@@H](N)CO)CSSC[C@@H](C(=O)N[C@@H](CC(N)=O)C(=O)N[C@@H](CO)C(=O)N[C@@H](Cc2ccccc2)C(=O)N[C@@H](CCCNC(=N)N)C(=O)N[C@@H](Cc2ccc(O)cc2)C(=O)O)NC(=O)CNC(=O)[C@H](CC(C)C)NC(=O)CNC(=O)[C@H](CO)NC(=O)[C@H](CCC(N)=O)NC(=O)[C@H](C)NC(=O)CNC1=O [ANP, atrial natriuretic peptide] | significantly reduced | inhibit brain water and sodium accumulation |  |
| Nc1nc2c(nc(Br)n2[C@@H]2O[C@@H]3COP(=O)(O)O[C@H]3[C@H]2O)c(=O)[nH]1 [8-bromo-cGMP] |  |  | Neither mannitol nor 8-bromo-cGMP affected brain edema |
| OC[C@@H](O)[C@@H](O)[C@H](O)[C@H](O)CO [mannitol] |  |  | Neither mannitol nor 8-bromo-cGMP affected brain edema |
